Assay results: patent publication US11034718B2, “C-3 novel triterpenone with C-17 reverse amide derivatives as HIV inhibitors” (HETERO LABS LIMITED, priority 2015, dated 2021)
pIC50: −log10 of the molar value. Read-outs that look alike come from different tables or passages of the source.

Key:
HIV-1 strain 92HT599 = test: Antiviral activity against HIV-1 strain 92HT599 in MT2 cells (p24 estimation); format: cell-based; details: HIV-1 92HT599, ~96 hours
In short: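 Percent inhibition versus vehicle controls came from p24 quantified in supernatant aliquots. These were taken after ~96 h incubation of compound (DMSO ≤1%) with MT2 cells infected at 10 TCID50/30,000 cells.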

HIV-1 pNL4-3 WT = test: Antiviral activity against pNL4-3/WT strain in MT4 cells (p24 estimation); format: cell-based; details: Human immunodeficiency virus 1, MT4, 96 h, read-out: pNL4-3 WT IC50
In short: (§1)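 MT4 cells infected with HIV-1 pNL4-3 WT or V7A (defined TCID50, 1.5 h, 37° C), plated at 3×10^4 cells/well with test compound, final DMSO ≤1%. After 4 days' culture, p24 in supernatant aliquots measured by kit.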

HIV-1 pNL4-3 V7A = test: Antiviral activity against pNL4-3/V7A strain in MT4 cells (p24 estimation); format: cell-based; details: Human immunodeficiency virus 1, MT4, 96 h, read-out: pNL4-3 V7A IC50
In short: as §1

[1] = Single dose oral pharmacokinetic study; format: in vivo; details: mouse; Mice oral PK @30 mg/kg; plasma
Experimental: Example 80: Evaluation of Compounds Single Dose Oral Pharmacokinetic Study
The test item was administered through oral route to animals (rat/mice) at 30 mg/kg dose in a suitable vehicle (10% Solutol+20% PEG) at 10 ml/kg dose volume. Blood samples (˜50 μL at each time point) were collected from retro-orbital plexus using K3 EDTA as anticoagulant in eppendorf tubes at defined time intervals 30 minutes, 1 hour, 2 hour, 4 hour, 8 hour, 24 hour & 48 hour under light ether anaesthesia. The samples were centrifuged at 3500×g to separate plasma and stored at −80° C. until analysis. Plasma 25 μl for Mice were processed as per described in sample preparation.
Standard solutions of the test compound 1 mg/mL solutions were prepared in DMSO and further dilutions were made in methanol. The calibration curve samples for LCMSMS analysis were prepared by spiking 25 μl of Mice plasma with 2.5 μl and of the appropriate working standard solution to obtain final concentrations 0.078, 0.156, 0.312, 0.625, 1.25, 2.5, 5, 10, 20 & 40 μg/ml. To the test compound plasma extraction was carried out using Acetonitrile precipitation. After reconstitution with solvent (50% Acetonitrile in Buffer) samples were analyzed by LCMSMS to get the concentrations to calculate PK Parameters.

[2] = Human immunodeficiency virus 1, 0% serum binding assay, read-out: IC50 0% serum
[3] = Human immunodeficiency virus 1, 40% serum binding assay, read-out: IC50 40% serum

Compound: CC(C)C1=C2[C@H]3CC[C@@H]4[C@@]5(C)CC[C@H](OC(=O)[C@H]6C[C@@H](C(=O)O)C6(C)C)C(C)(C)[C@@H]5CC[C@@]4(C)[C@]3(C)CC[C@@]2(NC(=O)C(C)(C)NS(=O)(=O)c2ccc(Cl)cc2)CC1=O [Example 65, (1R,3S)-3-((((3aR,5aR,5bR,7aR,9S,11aR,11bR,13aS)-3a-(2-((4-chlorophenyl)sulfonamido)-2-methylpropanamido)-1-isopropyl-5a,5b,8,8,11a-pentamethyl-2-oxo-3,3a,4,5,5a,5b,6,7,7a,8,9,10,11,11a,11b,12,13,13a-octadecahydro-2H-cyclopenta[a]chrysen-9-yl)oxy)carbonyl)-2,2-dimethylcyclobutane-1-carboxylic acid]
- pIC50 (HIV-1 strain 92HT599; [2]): > 8.52
- pIC50 (HIV-1 strain 92HT599; [3]): > 7.30
- pIC50 (HIV-1 pNL4-3 WT): < 8.00
- pIC50 (HIV-1 pNL4-3 V7A): < 7.30
- AUC(0-t) [1]: 145 µg·h/mL
- Cmax [1]: 7380 ng/mL

Compound: Cc1cccc(NC(=O)NC(C)(C)C(=O)N[C@@]23CC[C@]4(C)[C@H](CC[C@@H]5[C@@]6(C)CC[C@H](OC(=O)[C@H]7C[C@@H](C(=O)O)C7(C)C)C(C)(C)[C@@H]6CC[C@]54C)C2=C(C(C)C)C(=O)C3)n1 [Example 72, (1R,3S)-3-((((3aR,5aR,5bR,7aR,9S,11aR,11bR,13aS)-1-isopropyl-5a,5b,8,8,11a-pentamethyl-3a-(2-methyl-2-(3-(6-methylpyridin-2-yl)ureido)propanamido)-2-oxo-3,3a,4,5,5a,5b,6,7,7a,8,9,10,11,11a,11b,12,13,13a-octadecahydro-2H-cyclopenta[a]chrysen-9-yl)oxy)carbonyl)-2,2-dimethylcyclobutane-1-carboxylic acid]
- pIC50 (HIV-1 strain 92HT599; [2]): > 8.52
- pIC50 (HIV-1 strain 92HT599; [3]): > 7.30
- pIC50 (HIV-1 pNL4-3 WT): > 8.30
- pIC50 (HIV-1 pNL4-3 V7A): < 7.30
